Assay [1] relates to Streptococcus pneumoniae, strain ATCC 49619. The experiment in a line: Agar Dilution Test (NCCLS), Streptococcus pneumoniae. Particulars: Example 139 tested in form of the trihydrochloride. The assay is classed as cell-based. From the text:
In particular, the active compounds of the invention show antimicrobial, e.g. antibacterial, activity against gram negative and gram positive bacteria such as Pseudomonas, e.g. Pseudomonas aeruginosa, Pseudomonas fluorescens; Enterobacter, e.g. Enterobacter cloacae; Enterococcus, e.g. Enterococcus faecalis; Moraxella, e.g. Moraxella catarrhalis; Haemophilus, e.g. Haemophilus influenza; Klebsiella, e.g. Klebsiella edwardsii, Klebsiella pneumoniae; Streptococcus, e.g. Streptococcus pneumoniae, Streptococcus durans, Streptococcus faecium, Streptococcus pyogenes; Staphylococcus, e.g. Staphylococcus aureus, Staphylococcus pyogenes; Escherichia, e.g. Escherichia coli; and Proteus, e.g. Proteus mirabilis in vitro in the Agar Dilution Test according to National Commitee for Clinical Laboratory Standards (NCCLS) 1993, Document M7-A3Vol.13, No. 25: “Methods for dilution Antimicrobial Susceptibility Tests for Bacteria that Grow Aerobically—Third Edition, Approved Standard” and in vivo in the septikaemic mouse model. The active compounds of the invention show activity in the mouse when administerd at dosages from about 0.05 to 50 mg/kg body weight (ED50 values).The active compounds show an MHK(μg/ml) in the Agar Dilution Test from about 0.005 to ca. 50. The active compounds of the invention show an surprising overall activity spectrum.

Assay [2] relates to Pseudomonas aeruginosa strain 27853. Nature of the assay: Agar Dilution Test (NCCLS), Pseudomonas aeruginosa. The format is cell-based. From the text:
In particular, the active compounds of the invention show antimicrobial, e.g. antibacterial, activity against gram negative and gram positive bacteria such as Pseudomonas, e.g. Pseudomonas aeruginosa, Pseudomonas fluorescens; Enterobacter, e.g. Enterobacter cloacae; Enterococcus, e.g. Enterococcus faecalis; Moraxella, e.g. Moraxella catarrhalis; Haemophilus, e.g. Haemophilus influenza; Klebsiella, e.g. Klebsiella edwardsii, Klebsiella pneumoniae; Streptococcus, e.g. Streptococcus pneumoniae, Streptococcus durans, Streptococcus faecium, Streptococcus pyogenes; Staphylococcus, e.g. Staphylococcus aureus, Staphylococcus pyogenes; Escherichia, e.g. Escherichia coli; and Proteus, e.g. Proteus mirabilis in vitro in the Agar Dilution Test according to National Commitee for Clinical Laboratory Standards (NCCLS) 1993, Document M7-A3Vol.13, No. 25: “Methods for dilution Antimicrobial Susceptibility Tests for Bacteria that Grow Aerobically—Third Edition, Approved Standard” and in vivo in the septikaemic mouse model. […]
It has, for example, been determined that the MHK (μg/ml) of the compound of Example 139 against, for example Enterococcus faecalis strains ATTC 29212 or ATCC 51299, is of ca. 0.08 to 0.25; ainst Staphylococcus aureus strains ATCC 29213 or ATCC 9144 is of ca. 0.2 to 0.4 and against Pseudomonas aeruginosa strain 27853 is ca. 0.8.

As to `CO/N=C(\C(=O)N[C@@H]1C(=O)N2C(C(=O)O)=C(CSc3nc(=O)c(=O)[nH]n3C)CS[C@H]12)c1csc(N)n1` [ceftriaxone, reference compound], in assay [1], the MHK entry is “ca. 0.02 μg/ml”.

For “7-[[(5-Amino-1,2,4-thiadiazol-3-yl)-(Z)-(fluormethoxyimino)acetyl]amino]-3-[[(piperazinoiminomethyl)hydrazono]methyl]-3-cephem-4-carboxylic acid [Example 139]”, the MHK result is given as “ca. 0.01 μg/ml” in assay [1] and “ca. 0.8 μg/ml” in assay [2].

For the origin of these results see patent US6531465B1 (priority 1995, dated 2003).
